In the assay the target is Prothrombin (Homo sapiens, UniProt P00734). Nature of the assay: Inhibitory constant against thrombin.
`CC[C@@H](C)[C@H](NC(=O)[C@@H]1CCCN1C(=O)[C@H](CCC(=O)O)NC(=O)[C@H](Cc1ccc(O)cc1)NC(=O)[C@H](CC(=O)O)NC(=O)CNC(=O)CNC(=O)CNC(=O)CNC(=O)CSCC(=O)[C@H](CCCN=C(N)N)NC(=O)[C@@H]1CCCN1C(=O)[C@H](N)CC1CCCCC1)C(=O)N1CCC[C@H]1C(=O)N[C@@H](CCC(=O)O)C(=O)N[C@@H](CCC(=O)O)C(=O)N[C@@H](C)C(=O)N[C@@H](CC1CCCCC1)C(=O)N[C@H](CCC(N)=O)C(=O)O`: affinity was put at a Ki of 0.35 pM.
The same measure for `CC[C@@H](C)[C@H](NC(=O)[C@H](CCC(=O)O)NC(=O)[C@H](CCC(=O)O)NC(=O)[C@H](Cc1ccccc1)NC(=O)[C@H](CC(=O)O)NC(=O)CNC(=O)CNC(=O)CNC(=O)CNC(=O)CSCC(=O)[C@H](CCCNC(=N)N)NC(=O)[C@@H]1CCCN1C(=O)[C@@H](Cc1ccccc1)NC(C)=O)C(=O)N1CCC[C@H]1C(=O)N[C@@H](CCC(=O)O)C(=O)N[C@@H](CCC(=O)O)C(=O)N[C@@H](Cc1ccc(O)cc1)C(=O)N[C@@H](CC(C)C)C(=O)N[C@@H](CCC(N)=O)C(=O)O`: 1060 pM.
For `CC[C@@H](C)[C@H](NC(=O)[C@@H]1CCCN1C(=O)[C@H](CCC(=O)O)NC(=O)[C@H](Cc1ccc(O)cc1)NC(=O)[C@H](CC(=O)O)NC(=O)CNC(=O)CNC(=O)CNC(=O)CNC(=O)CN(CC(=O)[C@H](CCCN=C(N)N)NC(=O)[C@@H]1CCCN1C(=O)[C@H](N)CC1CCCCC1)C(C)=O)C(=O)N1CCC[C@H]1C(=O)N[C@@H](CCC(=O)O)C(=O)N[C@@H](CCC(=O)O)C(=O)N[C@@H](Cc1ccc(O)cc1)C(=O)N[C@@H](CC1CCCCC1)C(=O)N[C@@H](CC(=O)O)C(=O)O` the value was 1.7 pM.
Consider `CC[C@@H](C)[C@H](NC(=O)[C@H](CCC(=O)O)NC(=O)[C@H](CCC(=O)O)NC(=O)[C@H](Cc1ccccc1)NC(=O)[C@H](CC(=O)O)NC(=O)CNC(=O)CNC(=O)CNC(=O)CNC(=O)CSCC(=O)[C@H](CCCN=C(N)N)NC(=O)[C@@H]1CCCN1C(=O)[C@H](N)Cc1ccccc1)C(=O)N1CCC[C@H]1C(=O)N[C@@H](CCC(=O)O)C(=O)N[C@@H](CCC(=O)O)C(=O)N[C@@H](Cc1ccc(O)cc1)C(=O)N[C@@H](CC(C)C)C(=O)N[C@@H](CCC(N)=O)C(=O)O`, for which the inhibition constant (Ki) (in general, a measure of affinity in units of concentration, obtained from inhibition or displacement) was 9.4 pM.
For `CC[C@@H](C)[C@H](NC(=O)[C@@H]1CCCN1C(=O)[C@H](CCC(=O)O)NC(=O)[C@H](Cc1ccc(O)cc1)NC(=O)[C@H](CC(=O)O)NC(=O)CNC(=O)CNC(=O)CNC(=O)CNC(=O)[C@H](C)NCC(=O)[C@H](CCCN=C(N)N)NC(=O)[C@@H]1CCCN1C(=O)[C@H](N)CC1CCCCC1)C(=O)N1CCC[C@H]1C(=O)N[C@@H](CCC(=O)O)C(=O)N[C@@H](CCC(=O)O)C(=O)N[C@@H](Cc1ccc(O)cc1)C(=O)N[C@@H](CC1CCCCC1)C(=O)N[C@@H](CC(=O)O)C(=O)O` the value was 1.5 pM; for `CC[C@@H](C)[C@H](NC(=O)[C@@H]1CCCN1C(=O)[C@H](CCC(=O)O)NC(=O)[C@H](Cc1ccc(O)cc1)NC(=O)[C@H](CC(=O)O)NC(=O)CNC(=O)[C@H](CC(N)=O)NC(=O)CNC(=O)CNC(=O)CNC(=O)CN[C@@H]1CCCN1CC(=O)[C@H](CCCN=C(N)N)NC(=O)[C@@H]1CCCN1C(=O)[C@H](N)CC1CCCCC1)C(=O)N1CCC[C@H]1C(=O)N[C@@H](CCC(=O)O)C(=O)N[C@@H](CCC(=O)O)C(=O)N[C@@H](C)C(=O)N[C@@H](CC1CCCCC1)C(=O)N[C@H](CCC(=O)O)C(=O)O`, 5.7 pM; for `CC[C@@H](C)[C@H](NC(=O)[C@@H]1CCCN1C(=O)[C@H](CCC(=O)O)NC(=O)[C@H](Cc1ccc(O)cc1)NC(=O)[C@H](CC(=O)O)NC(=O)CNC(=O)CNC(=O)CNC(=O)CNC(=O)CN(C)CC(=O)[C@H](CCCNC(=N)N)NC(=O)[C@@H]1CCCN1C(=O)[C@H](N)CC1CCCCC1)C(=O)N1CCC[C@H]1C(=O)N[C@@H](CCC(=O)O)C(=O)N[C@@H](CCC(=O)O)C(=O)N[C@@H](Cc1ccc(O)cc1)C(=O)N[C@@H](CC1CCCCC1)C(=O)N[C@@H](CC(=O)O)C(=O)O`, 2 pM.
The same measure for `CC[C@@H](C)[C@H](NC(=O)[C@@H]1CCCN1C(=O)[C@H](CCC(=O)O)NC(=O)[C@H](Cc1ccc(O)cc1)NC(=O)[C@H](CC(=O)O)NC(=O)CNC(=O)[C@H](CC(N)=O)NC(=O)CNC(=O)CNC(=O)CNC(=O)CNC(=O)CN(C)CC(=O)[C@H](CCCNC(=N)N)NC(=O)[C@@H]1CCCN1C(=O)[C@H](N)CC1CCCCC1)C(=O)N1CCC[C@H]1C(=O)N[C@@H](CCC(=O)O)C(=O)N[C@@H](CCC(=O)O)C(=O)N[C@@H](C)C(=O)N[C@@H](CC1CCCCC1)C(=O)N[C@H](CCC(=O)O)C(=O)O`: 0.87 pM.
For `CC[C@@H](C)[C@H](NC(=O)[C@H](CCC(=O)O)NC(=O)[C@H](CCC(=O)O)NC(=O)[C@H](Cc1ccccc1)NC(=O)[C@H](CC(=O)O)NC(=O)CNC(=O)CNC(=O)CNC(=O)CNC(=O)CN(C)CC(=O)[C@H](CCCNC(=N)N)NC(=O)[C@@H]1CCCN1C(=O)[C@H](N)Cc1ccccc1)C(=O)N1CCC[C@H]1C(=O)N[C@@H](CCC(=O)O)C(=O)N[C@@H](CCC(=O)O)C(=O)N[C@@H](Cc1ccc(O)cc1)C(=O)N[C@@H](CC(C)C)C(=O)N[C@@H](CCC(N)=O)C(=O)O` the value was 83 pM; for `CC[C@@H](C)[C@H](NC(=O)[C@H](CCC(=O)O)NC(=O)[C@H](CCC(=O)O)NC(=O)[C@H](Cc1ccccc1)NC(=O)[C@H](CC(=O)O)NC(=O)CNC(=O)CCCCCNC(=O)CNCC(=O)NCC(=O)[C@H](CCCNC(=N)N)NC(=O)[C@@H]1CCCN1C(=O)[C@H](N)Cc1ccccc1)C(=O)N1CCC[C@H]1C(=O)N[C@@H](CCC(=O)O)C(=O)N[C@@H](CCC(=O)O)C(=O)N[C@@H](Cc1ccc(O)cc1)C(=O)N[C@@H](CC(C)C)C(=O)N[C@@H](CCC(N)=O)C(=O)O`, 7300 pM; for `CC[C@@H](C)[C@H](NC(=O)[C@@H]1CCCN1C(=O)[C@H](CCC(=O)O)NC(=O)[C@H](Cc1ccc(O)cc1)NC(=O)[C@H](CC(=O)O)NC(=O)CNC(=O)CNC(=O)CNC(=O)CNC(=O)CN(C)CC(=O)[C@H](CCCNC(=N)N)NC(=O)[C@@H]1CCCN1C(=O)[C@H](N)Cc1ccccc1)C(=O)N1CCC[C@H]1C(=O)N[C@@H](CCC(=O)O)C(=O)N[C@@H](CCC(=O)O)C(=O)N[C@@H](Cc1ccc(O)cc1)C(=O)N[C@@H](CC1CCCCC1)C(=O)N[C@@H](CC(=O)O)C(=O)O`, 35 pM.

Values taken from ChEMBL document CHEMBL1132149, “Potent bivalent thrombin inhibitors: replacement of the scissile peptide bond at P(1)-P(1)' with arginyl ketomethylene isosteres” (J Med Chem, 1999).
